Experimental data reported in patent US20230085307A1, “PYRIDAZINONE COMPOUND AND HERBICIDE” (NISSAN CHEMICAL CORPORATION, priority 2019, published 2023).

Legend:
Japanese bulrush = assay: Test Example 2: herbicidal activity, application during weed generation under submerged conditions (Table 17, symbol B); type: in vivo, Japanese bulrush (Schoenoplectus juncoides); conditions: application during weed generation, submerged conditions
Method in brief: (§1)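 Alluvial soil in Wagner pots was flooded to 4 cm depth and sown with the three weeds together; pots were kept in a greenhouse at 25° C. to 30° C. At the one to two leaf stage, an emulsion formulation diluted in water to a set rate went onto the water surface; scored three weeks later.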

persian speedwell [1] = assay: Test Example 4: herbicidal effect by soil treatment (Table 19, symbol R); type: in vivo, Persian speedwell (Veronica persica)
Method in brief: (§2)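 Scoring uses the grading scale of an earlier test, three weeks post-application. Treatment consists of spraying a diluted emulsion formulation across the surface of sterilized diluvial soil in which seeds are buried near 1.5 cm deep; boxes are kept in a greenhouse between 25° C. and 30° C.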

velvetleaf = assay: Test Example 4: herbicidal effect by soil treatment (Table 19, symbol M); type: in vivo, velvetleaf (Abutilon theophrasti)
Method in brief: as §2

southern crabgrass [2] = assay: Test Example 5: herbicidal effect by foliage application, plastic box (Table 20, symbol F); type: in vivo, southern crabgrass (Digitaria ciliaris); conditions: foliage application
Method in brief: (§3)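 Post-emergence foliar test in sterilized diluvial soil. Compound applied as water-diluted emulsion at a predetermined rate to 14-day-old plants; evaluation at three weeks.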

persian speedwell [3] = assay: Test Example 5: herbicidal effect by foliage application, plastic box (Table 20, symbol R); type: in vivo, Persian speedwell (Veronica persica); conditions: foliage application
Method in brief: as §3

barnyard grass = assay: Test Example 3: herbicidal effect by foliage application, Wagner pot (Table 18, symbol H); type: in vivo, barnyard grass (Echinochloa crus-galli); conditions: for herbicidal effect on H (barnyard grass), rating 0-5: 320 g/ha
Method in brief: (§4)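 Plants were sown in alluvial soil held under 0.1–0.5 cm standing water and grown 14 days in a greenhouse at 25–30 °C. An emulsifiable formulation, water-diluted to the set dose, was then sprayed onto the foliage, and effects were scored three weeks later using previously defined criteria.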

Italian ryegrass [4] = assay: Test Example 5: herbicidal effect by foliage application, plastic box (Table 20, symbol K); type: in vivo, Italian ryegrass (Lolium multiflorum); conditions: foliage application
Method in brief: as §3

windgrass [5] = assay: Test Example 4: herbicidal effect by soil treatment (Table 19, symbol L); type: in vivo, windgrass (Apera spica-venti)
Method in brief: as §2

Chinese sprangletop = assay: Test Example 3: herbicidal effect by foliage application, Wagner pot (Table 18, symbol D); type: in vivo, chinese sprangletop (Leptochloa chinensis); conditions: for herbicidal effect on D (Chinese sprangletop), rating 0-5: 320 g/ha
Method in brief: as §4

lambsquarters [6] = assay: Test Example 4: herbicidal effect by soil treatment (Table 19, symbol O); type: in vivo, lambsquarters (Chenopodium album)
Method in brief: as §2

lambsquarters [7] = assay: Test Example 5: herbicidal effect by foliage application, plastic box (Table 20, symbol O); type: in vivo, lambsquarters (Chenopodium album); conditions: foliage application
Method in brief: as §3

blackgrass = assay: Test Example 4: herbicidal effect by soil treatment (Table 19, symbol J); type: in vivo, blackgrass (Alopecurus myosuroides)
Method in brief: as §2

late watergrass [8] = assay: Test Example 1: herbicidal activity, application before weed generation under submerged conditions (Table 16, symbol A); type: in vivo, late watergrass (Echinochloa oryzicola); conditions: for Herbicidal effect on A: late watergrass (grade 0-5): 320 g/ha applied herbicide
Method in brief: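 Submerged Wagner pots (alluvial soil, 4 cm water) sown with weed seeds and planted with 2.5-leaf rice seedlings; emulsifiable concentrate diluted in water applied to water surface on sowing day. Held in greenhouse at 25-30 °C; injury scored 0-5 by herbicidal rate after three weeks.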

windgrass [9] = assay: Test Example 5: herbicidal effect by foliage application, plastic box (Table 20, symbol L); type: in vivo, windgrass (Apera spica-venti); conditions: foliage application
Method in brief: as §3

southern crabgrass [10] = assay: Test Example 4: herbicidal effect by soil treatment (Table 19, symbol F); type: in vivo, southern crabgrass (Digitaria ciliaris)
Method in brief: as §2

late watergrass [11] = assay: Test Example 2: herbicidal activity, application during weed generation under submerged conditions (Table 17, symbol A); type: in vivo, late watergrass (Echinochloa oryzicola); conditions: application during weed generation, submerged conditions
Method in brief: as §1

Italian ryegrass [12] = assay: Test Example 4: herbicidal effect by soil treatment (Table 19, symbol K); type: in vivo, Italian ryegrass (Lolium multiflorum)
Method in brief: as §2

[13] = amount of applied herbicide 274 g/ha
[14] = 274 g/ha, three weeks after application
[15] = amount of applied herbicide 320 g/ha
[16] = 320 g/ha, evaluated three weeks after application
[17] = 320 g/ha, three weeks after application
[18] = 320 g/ha, 3 weeks after application

COc1ccccc1-c1sc2cc(C)ccc2c1-c1c(O)c(C)nn(C)c1=O [3-049]
herbicidal effect rating, B: Japanese bulrush (Japanese bulrush; AAH 274 g/ha): 3 (Herbicidal rate of 40% or more and less than 70%) | R: persian speedwell, herbicidal effect grade (persian speedwell [1]; [13]): 4 (Herbicidal rate of 70% or more and less than 90%) | M: velvetleaf, herbicidal effect grade (velvetleaf; [13]): 0 (Herbicidal rate of 5% or less (almost no effect)) | F: southern crabgrass, herbicidal effect grade (southern crabgrass [2]; [14]): 5 (Herbicidal rate of 90% or more (almost completely withered)) | R: persian speedwell, herbicidal effect grade (persian speedwell [3]; [14]): 5 (Herbicidal rate of 90% or more (almost completely withered)) | herbicidal effect on barnyard grass (H) (barnyard grass; 274 g/ha): 5 (Herbicidal rate of 90% or more (almost completely withered)) | K: Italian ryegrass, herbicidal effect grade (Italian ryegrass [4]; [14]): 5 (Herbicidal rate of 90% or more (almost completely withered)) | L: windgrass, herbicidal effect grade (windgrass [5]; [13]): 5 (Herbicidal rate of 90% or more (almost completely withered)) | herbicidal effect on Chinese sprangletop (D) (Chinese sprangletop; 274 g/ha): 5 (Herbicidal rate of 90% or more (almost completely withered)) | O: lambsquarters, herbicidal effect grade (lambsquarters [6]; [13]): 4 (Herbicidal rate of 70% or more and less than 90%) | O: lambsquarters, herbicidal effect grade (lambsquarters [7]; [14]): 4 (Herbicidal rate of 70% or more and less than 90%) | J: blackgrass, herbicidal effect grade (blackgrass; [13]): 3 (Herbicidal rate of 40% or more and less than 70%) | Herbicidal effect, A: late watergrass (late watergrass [8]; [13]): 5 (Herbicidal rate of 90% or more (almost completely withered)) | L: windgrass, herbicidal effect grade (windgrass [9]; [14]): 5 (Herbicidal rate of 90% or more (almost completely withered)) | F: southern crabgrass, herbicidal effect grade (southern crabgrass [10]; [13]): 3 (Herbicidal rate of 40% or more and less than 70%) | herbicidal effect rating, A: late watergrass (late watergrass [11]; AAH 274 g/ha): 4 (Herbicidal rate of 70% or more and less than 90%) | K: Italian ryegrass, herbicidal effect grade (Italian ryegrass [12]; [13]): 5 (Herbicidal rate of 90% or more (almost completely withered))

Cc1nn(C)c(=O)c(-c2c(-c3ccc(OC4CC4)cc3)sc3ccc(F)cc23)c1O [2-217]
herbicidal effect rating, B: Japanese bulrush (Japanese bulrush; AAH 320 g/ha): 3 (Herbicidal rate of 40% or more and less than 70%) | R: persian speedwell, herbicidal effect rating (persian speedwell [1]; [15]): 4 (Herbicidal rate of 70% or more and less than 90%) | M: velvetleaf, herbicidal effect rating (velvetleaf; [15]): 1 (Herbicidal rate of 5% or more and less than 20%) | herbicidal effect on F: southern crabgrass (criteria 0-5) (southern crabgrass [2]; [16]): 3 (Herbicidal rate of 40% or more and less than 70%) | herbicidal effect on R: persian speedwell (criteria 0-5) (persian speedwell [3]; [16]): 5 (Herbicidal rate of 90% or more (almost completely withered)) | herbicidal effect on H: barnyard grass (barnyard grass; [15]): 5 (Herbicidal rate of 90% or more (almost completely withered)) | herbicidal effect on K: Italian ryegrass (criteria 0-5) (Italian ryegrass [4]; [16]): 5 (Herbicidal rate of 90% or more (almost completely withered)) | L: windgrass, herbicidal effect rating (windgrass [5]; [15]): 0 (Herbicidal rate of 5% or less (almost no effect)) | herbicidal effect on D: Chinese sprangletop (Chinese sprangletop; [15]): 5 (Herbicidal rate of 90% or more (almost completely withered)) | O: lambsquarters, herbicidal effect rating (lambsquarters [6]; [15]): 4 (Herbicidal rate of 70% or more and less than 90%) | herbicidal effect on O: lambsquarters (criteria 0-5) (lambsquarters [7]; [16]): 4 (Herbicidal rate of 70% or more and less than 90%) | J: blackgrass, herbicidal effect rating (blackgrass; [15]): 0 (Herbicidal rate of 5% or less (almost no effect)) | Herbicidal effect on A: late watergrass (grade 0-5) (late watergrass [8]): 5 (Herbicidal rate of 90% or more (almost completely withered)) | herbicidal effect on L: windgrass (criteria 0-5) (windgrass [9]; [16]): 5 (Herbicidal rate of 90% or more (almost completely withered)) | F: southern crabgrass, herbicidal effect rating (southern crabgrass [10]; [15]): 4 (Herbicidal rate of 70% or more and less than 90%) | herbicidal effect rating, A: late watergrass (late watergrass [11]; AAH 320 g/ha): 3 (Herbicidal rate of 40% or more and less than 70%) | K: Italian ryegrass, herbicidal effect rating (Italian ryegrass [12]; [15]): 4 (Herbicidal rate of 70% or more and less than 90%)

CCCC(=O)Oc1c(C)nn(C)c(=O)c1-c1c(-c2ccc(SC)cc2)sc2ccccc12 [1-037]
herbicidal effect rating, B: Japanese bulrush (Japanese bulrush; AAH 320 g/ha): 1 (Herbicidal rate of 5% or more and less than 20%) | herbicidal effect rating, R: persian speedwell (persian speedwell [1]; [15]): 3 (Herbicidal rate of 40% or more and less than 70%) | herbicidal effect rating, M: velvetleaf (velvetleaf; [15]): 3 (Herbicidal rate of 40% or more and less than 70%) | herbicidal effect grade, F: southern crabgrass (southern crabgrass [2]; [17]): 3 (Herbicidal rate of 40% or more and less than 70%) | herbicidal effect grade, R: persian speedwell (persian speedwell [3]; [17]): 5 (Herbicidal rate of 90% or more (almost completely withered)) | herbicidal effect on H (barnyard grass), rating 0-5 (barnyard grass): 5 (Herbicidal rate of 90% or more (almost completely withered)) | herbicidal effect grade, K: Italian ryegrass (Italian ryegrass [4]; [17]): 4 (Herbicidal rate of 70% or more and less than 90%) | herbicidal effect rating, L: windgrass (windgrass [5]; [15]): 0 (Herbicidal rate of 5% or less (almost no effect)) | herbicidal effect on D (Chinese sprangletop), rating 0-5 (Chinese sprangletop): 3 (Herbicidal rate of 40% or more and less than 70%) | herbicidal effect rating, O: lambsquarters (lambsquarters [6]; [15]): 3 (Herbicidal rate of 40% or more and less than 70%) | herbicidal effect grade, O: lambsquarters (lambsquarters [7]; [17]): 5 (Herbicidal rate of 90% or more (almost completely withered)) | herbicidal effect rating, J: blackgrass (blackgrass; [15]): 0 (Herbicidal rate of 5% or less (almost no effect)) | Herbicidal effect on A: late watergrass (grade 0-5) (late watergrass [8]): 4 (Herbicidal rate of 70% or more and less than 90%) | herbicidal effect grade, L: windgrass (windgrass [9]; [17]): 0 (Herbicidal rate of 5% or less (almost no effect)) | herbicidal effect rating, F: southern crabgrass (southern crabgrass [10]; [15]): 0 (Herbicidal rate of 5% or less (almost no effect)) | herbicidal effect rating, A: late watergrass (late watergrass [11]; AAH 320 g/ha): 0 (Herbicidal rate of 5% or less (almost no effect)) | herbicidal effect rating, K: Italian ryegrass (Italian ryegrass [12]; [15]): 1 (Herbicidal rate of 5% or more and less than 20%)

CCCOc1ccc(-c2sc3ccc(F)cc3c2-c2c(OC(=O)CCC)c(C)nn(C)c2=O)cc1 [2-033]
herbicidal effect rating, B: Japanese bulrush (Japanese bulrush; AAH 320 g/ha): 4 (Herbicidal rate of 70% or more and less than 90%) | herbicidal effect rating, R: persian speedwell (persian speedwell [1]; 320 g/ha): 4 (Herbicidal rate of 70% or more and less than 90%) | herbicidal effect rating, M: velvetleaf (velvetleaf; 320 g/ha): 3 (Herbicidal rate of 40% or more and less than 70%) | effect on southern crabgrass (F) (southern crabgrass [2]; [18]): 2 (Herbicidal rate of 20% or more and less than 40%) | effect on persian speedwell (R) (persian speedwell [3]; [18]): 5 (Herbicidal rate of 90% or more (almost completely withered)) | herbicidal effect on H (barnyard grass), rating 0-5 (barnyard grass): 5 (Herbicidal rate of 90% or more (almost completely withered)) | effect on Italian ryegrass (K) (Italian ryegrass [4]; [18]): 2 (Herbicidal rate of 20% or more and less than 40%) | herbicidal effect rating, L: windgrass (windgrass [5]; 320 g/ha): 0 (Herbicidal rate of 5% or less (almost no effect)) | herbicidal effect on D (Chinese sprangletop), rating 0-5 (Chinese sprangletop): 1 (Herbicidal rate of 5% or more and less than 20%) | herbicidal effect rating, O: lambsquarters (lambsquarters [6]; 320 g/ha): 5 (Herbicidal rate of 90% or more (almost completely withered)) | effect on lambsquarters (O) (lambsquarters [7]; [18]): 5 (Herbicidal rate of 90% or more (almost completely withered)) | herbicidal effect rating, J: blackgrass (blackgrass; 320 g/ha): 0 (Herbicidal rate of 5% or less (almost no effect)) | Herbicidal effect on A: late watergrass (grade 0-5) (late watergrass [8]): 4 (Herbicidal rate of 70% or more and less than 90%) | effect on windgrass (L) (windgrass [9]; [18]): 0 (Herbicidal rate of 5% or less (almost no effect)) | herbicidal effect rating, F: southern crabgrass (southern crabgrass [10]; 320 g/ha): 0 (Herbicidal rate of 5% or less (almost no effect)) | herbicidal effect rating, A: late watergrass (late watergrass [11]; AAH 320 g/ha): 1 (Herbicidal rate of 5% or more and less than 20%) | herbicidal effect rating, K: Italian ryegrass (Italian ryegrass [12]; 320 g/ha): 0 (Herbicidal rate of 5% or less (almost no effect))
